Experiment: physchem
Details: cells or culture medium

CC(C)C[C@@H]1NC(=O)[C@H](CO)NC(=O)[C@@H]2CSSC[C@@H]3NC(=O)[C@H]([C@@H](C)O)NC(=O)[C@H](C)NC(=O)[C@H](CC(=O)O)NC(=O)[C@H](CC(=O)O)NC(=O)[C@H](CSSC[C@H](NC(=O)[C@H](Cc4ccc(O)cc4)NC(=O)[C@@H](N)CCC(N)=O)C(=O)N[C@@H](C(C)C)C(=O)N4CCC[C@H]4C(=O)N[C@@H](C(C)C)C(=O)N[C@@H](CC(=O)O)C(=O)N[C@@H](CCC(N)=O)C(=O)N4CCC[C@H]4C(=O)N2)NC(=O)[C@H](CSSC[C@@H](C(=O)N[C@@H](CCCNC(=N)N)C(=O)N[C@@H](C)C(=O)O)NC(=O)[C@H](Cc2ccc(O)cc2)NC(=O)[C@H](Cc2ccc(O)cc2)NC(=O)[C@H](C(C)C)NC(=O)[C@H]([C@@H](C)O)NC(=O)[C@H](Cc2c[nH]cn2)NC(=O)CNC(=O)[C@H](CC(N)=O)NC(=O)[C@H](CCC(=O)O)NC(=O)[C@H](CC(N)=O)NC(=O)[C@H](CCCNC(=N)N)NC(=O)[C@H](CCC(=O)O)NC(=O)[C@H](CCC(N)=O)NC(=O)[C@H]([C@@H](C)O)NC3=O)NC(=O)[C@@H]2CCCN2C(=O)[C@H](CCC(N)=O)NC(=O)[C@H]([C@@H](C)O)NC(=O)[C@H](CC(N)=O)NC1=O (single isomer, unassigned) [Peak 1]
remaining at 24 h: 5.6%

Reference: patent US20200181212A1 (priority 2014, published 2020)
